One assay concerns hA6. The experiment in a line: Fluorescence polarization, direct titration of probe peptide with protein. It counts as binding, human. The conditions noted are these: 0.03 μM probe, 0 to ≈200 μM protein, 2 mM CaCl2, then 5 mM EDTA added. The source says:
(§1) To mimic the phage display experiment, we measured binding by displacement of a fluorescently labeled probe peptide. For our probe, we used the competitor peptide from the phage display experiment with the addition of an N-terminal 5-FAM fluorophore (fig. 3A). […] We could then measure fluorescence polarization of the probe peptide as a function of increasing concentrations of unlabeled peptide. A peptide that binds at the same site as the probe will displace the probe and thereby change the fluorescence polarization.
(§2) We fit the curve to a single-site binding model: (6) P([protein])∼ΔPmax[protein]/[protein]+KD,probe+P0 where P0 is the polarization of the peptide in the absence of protein, ΔPmax is the change in signal from unbound peptide to bound to the protein, and KD,probe is the probe dissociation constant. After recording the titration curve in the presence of CaCl2, we added 5 mM EDTA to all wells and remeasured the curve.
(§3) Fig S6: Binding of /f_luorescent probe peptide is calcium dependent. Panel show measured /f_luorescence anisotropy for the peptide 5FAM- GFDWR […] in the presence of […]
(§4) increasing protein concentration. Probe concentration was 0.03 uM. Proteins are hA5 (purple), hA6 (orange), ancA5/A6 (green), and human S100A9 (black). S100A9 is a negative control, because it is evolutionarily distant from hA5 and hA6 and would thus not be expec ted to bind to the probe […]
(Fluorescence polarisation rises when a labelled molecule tumbles more slowly, as on binding a larger partner.)

The next assay relates to hA5. The description is as above. It counts as binding, human. The settings on record: 0.03 μM probe, 0 to ≈200 μM protein, 2 mM CaCl2, then 5 mM EDTA added.
Description: as §1, §2, §3, §4

The test system of a further assay is ancA5/A6. The assay is described as above. The assay is classed as binding. The conditions noted are these: 0.03 μM probe, 0 to ≈200 μM protein, 2 mM CaCl2, then 5 mM EDTA added.
Description: as §1, §2, §3, §4

In assay [1] the target is T1, hA6 (human S100A6) (Homo sapiens, UniProt P06703).
T1 construct: His tag with TEV protease cleavage site (N, cleaved yes); made in house; host or cells: Rosetta E. coli (DE3) pLysS
The experiment in a line: Fluorescence polarization, displacement of 5FAM probe peptide. It counts as binding. The conditions noted are these: displacement of 5FAM-labelled probe, 50 mM TES, 100 mM NaCl, 0.01% Tween-20, pH 7.4, 2.4-4.2 µM protein with equal probe, technical triplicate, corrected for probe.
Description: as §1
(§5) We did the fluorescence polarization experiments in 50 mM TES, 100 mM NaCl, and 0.01% Tween-20, pH 7.4, thus matching the phage display experimental buffer. We ordered all nine test peptides and the probe peptide in milligram quantities at 95% purity (Genscript). For the probe peptide, we used “5FAM-[…],” where 5FAM indicates an N-terminally linked 5-carboxyfluorescein moiety. […] The only exception was […], which we dissolved in ddH2O .
(§6) We measured fluorescence anisotropy using a SpectraMax i3 plate reader (Molecular Devices) with 96-well black plates (Corning). Prior to reading each plate, we shook for 5 s and then acquired with 500 ms integration time. Prior to the set of experiments, we optimized detector height and calibrated the plate’s xy position to maximize signal. We then kept this calibration throughout the set of experiments. For each experiment, we recorded both vertical (vv) and horizontal (vh) emission channels and then converted to arbitrary polarization units by: (5) R=vv−Gvh/vv+2Gvh with G set to 1.0. Titrations were done by serial dilution through conditions on individual plates, followed by measurement of all wells. We did all measurements in technical triplicate. We used custom software to programmatically remove technical replicate outliers.
(§7) For our production experiments, we added increasing amounts of competitor peptide to wells with between 2.4 and 4.2 µM protein (monomer). Each well also contained probe peptide at the same concentration as the protein. We selected these concentrations to maximize the amount of signal change upon addition of competitor peptide KD,probe . We calculated the expected signal change by: (7) ΔPpredicted=ΔPmax×[MX]/[X]T where ΔPmax=0.135 (as determined by our initial fits to extract probe peptide KD,probe ), [X]T was the total probe concentration, and [MX] was the concentration of the probe/protein complex prior to adding competitor peptide. We calculated [MX] by: (8) [MX]=([X]T+[M]T+KD,probe)±([X]T+[M]T+KD,probe)^2−4[X]T[M]T/2 where [M]T was the total protein concentration.
(§8) Prior to fitting a binding model to each curve, we converted it from polarization to fractional saturation. We did so by first fitting the single-site binding model to the data to obtain an estimate of the initial polarization (P0) for the protein/peptide pair. We then subtracted this value of P0 to obtain a baseline-subtracted polarization. We then divided the baseline-subtracted polarization by ΔPpredicted , yielding a fractional saturation (θ).
(§9) We then fit a reduced form of the single-site binding model to the data: (9) θ=[protein]/[protein]+KD,apparent
(§10) Finally, we corrected the resulting KD,apparent to account for the effect of the competitor peptide ([Hulme and Trevethick 2010]): (10) KD,peptide=KD,apparent/1+[X]T*(1−δ/2)/KD,probe+δ/(1−δ) where [X]T is the total probe peptide concentration and δ=[MX]/[X]T .

Assay [2] has as its target T2, hA5 (human S100A5) (Homo sapiens, UniProt P33763).
T2 construct: His tag with TEV protease cleavage site (N, cleaved yes); made in house; host or cells: Rosetta E. coli (DE3) pLysS
T2 sequence (P33763 1-92): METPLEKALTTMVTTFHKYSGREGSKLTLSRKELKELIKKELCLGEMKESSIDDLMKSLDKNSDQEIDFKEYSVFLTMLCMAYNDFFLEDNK
The description is as above. It counts as binding. The conditions noted are these: displacement of 5FAM-labelled probe, 50 mM TES, 100 mM NaCl, 0.01% Tween-20, pH 7.4, 2.4-4.2 µM protein with equal probe, technical triplicate, corrected for probe.
Description: as §1, §5, §6, §7, §8, §9, §10

For assay [3], the target named is T1, hA6 (human S100A6). The experiment in a line: Quantitative phage display enrichment with/without competitor peptide. It counts as binding. The conditions noted are these: E=−ln(cnon-competitor/ccompetitor), panning in 2 mM Ca2+, elution 5 mM EDTA, 20 μM competitor, E≤−1.5 taken as binder. An excerpt: (§11) We next set out to measure the binding of S100 proteins to this library of random 12-mer peptides. The S100 peptide-binding interface is only exposed upon Ca^2+ -binding (fig. 1A); therefore, we performed phage panning experiments in the presence of saturating Ca^2+ and then eluted the bound phage using saturating ethylenediaminetetraacetic acid (EDTA) (fig. 2B). After this panning step, the population of enriched phage particles will be a mixture of those that bind at the site of interest and those that bind adventitiously (blue and purple phage, fig. 2B) ([Sidhu et al. 2000]; [Willats 2002]). To separate these populations, we repeated the panning experiment in the presence of a saturating concentration of competitor peptide known to bind at the site of interest ([…], fig. 2C) ([Wheeler et al. 2018]). This should lower the enrichment of peptides that bind at the site of interest, while allowing any adventitious interactions to remain. By comparing the competitor and noncompetitor pools, we can distinguish between specific and adventitious binders.
(§12) After panning, we sequenced the resulting phage pools using Illumina sequencing. […] We estimated changes in the frequencies of peptides between samples with and without competitor peptide (supplementary fig. S3, Supplementary Material online). For each peptide, we determined E: (1) E=−ln(cnon-competitor/ccompetitor) where ccompetitor and cnon-competitor are the sequence counts for the peptide recovered from parallel Ca^2+/EDTA panning experiments done with and without competitor peptides.
(§13) If E < 0, the competitor peptide interferes with the Ca^2+ -dependent enrichment of the peptide. […] If E > 0, the competitor peptide improves Ca^2+ -dependent enrichment of the phage peptide. This could occur if the phage peptide binds more favorably to the S100/competitor peptide complex than the S100 alone. […]
(§14) Phage display experiments were performed using the PhD-12 peptide phage display kit (NEB). […] Eluates were tittered to quantify eluted phage as follows. […]

The subject of assay [4] is ancA5/A6 (reconstructed last common ancestor of S100A5 and S100A6). The assay is described as above. The assay is classed as binding. The conditions noted are these: ancA5/A6 (aA5A6 in csv); E=−ln(cnon-competitor/ccompetitor); panning in 2 mM Ca2+, elution 5 mM EDTA; 20 μM competitor; E≤−1.5 taken as binder.
Description: as §11, §12, §13, §14

The target in assay [5] is T2, hA5 (human S100A5). The description is as above. The assay is classed as binding. The settings on record: E=−ln(cnon-competitor/ccompetitor), panning in 2 mM Ca2+, elution 5 mM EDTA, 20 μM competitor, E≤−1.5 taken as binder.
Description: as §11, §12, §13, §14

Ends that are not written are not given here. * marks the point of attachment. 5FAM = O=C1OC2(c3ccc(O)cc3Oc3cc(O)ccc32)c2ccc(C(=O)*)cc21

The results in this text go back to publication PMC8136485, “Were Ancestral Proteins Less Specific?” (Molecular Biology and Evolution, 2021).

What is called Kd is the equilibrium constant for the complex coming apart.

For the substance 5FAM-GFDWRWGMEALTGGGSAE [probe], the “calcium dependence of probe binding” value in the assay on hA6, in the assay with hA5 and with ancA5/A6 was “bound in a calcium-dependent manner” in each case. For EGLDLMSILELIGGSAE [phage_ctl_0], the Kd at hA6 (human S100A6) [1] came out at 48.7 µM; on hA5 (human S100A5) [2], 47.2 µM. With EQPLLKYLQLMRGGSAE [phage_ctl_5], on hA5 (human S100A5) [2], the affinity, expressed as Kd, was 85.8 µM. At hA6 (human S100A6) [1], GEVTNYGYLVDQGGSAE [phage_ctl_7] displayed a Kd of 42.7 µM.

GWLEQYFSRTADGGSAE [phage_ctl_2]: the dissociation constant Kd at hA6 (human S100A6) [1] came to 14.6 µM; at hA5 (human S100A5) [2] it was 18.6 µM. For HVQWRDRNVIEWGGSAE [phage_ctl_6], the affinity at hA5 (human S100A5) [2], expressed as Kd, was 123 µM.

For RHGFLQDILFKLGGSAE [phage_ctl_1], the results for the Kd on hA6 (human S100A6) [1] and on hA5 (human S100A5) [2] were 61.7 µM and 36.4 µM, respectively. As for “SGPSDWLHKGVLGGSAE [phage_ctl_9, phage display 12-mer peptide with C-terminal flank, ordered as synthetic test peptide]”, the figures for the “E (enrichment)” value (at hA6 (human S100A6) [3]; in assay [4]; on hA5 (human S100A5) [5]) were 0.5131, 5.052 and 0.5882, respectively.

For the substance SRQTTSTHEWVVGGSAE [phage_ctl_4], at hA6 (human S100A6) [1], binding was characterised by a dissociation constant (Kd) of 102 µM. For the same substance, the “Kd (KD,peptide)” value on hA5 (human S100A5) [2] is on record as “No model could be reliably fit”.

At hA6 (human S100A6) [1], SSSTYPGFRQSTGGSAE [phage_ctl_8] displayed a Kd of 202 µM.
